The record followed here is PubChem BioAssay AID256 (DTP/NCI, 2004).

Structures are written as SMILES. “And” between values parts separate entries of the source, which are not always exact repeats. Equal values may be shown once. Inconclusive results and toxic doses are left out.

The subject of this experiment is CD2F1 mice, L1210 leukemia ip, survival T/C. Description: NCI In Vivo Anticancer Drug Screen. Data for tumor model L1210 Leukemia (intraperitoneal) in CD2F1 (CDF1) mice. The note with it: higher = longer survival. The gist of the method:
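Each value reflects a quotient of treated over vehicle control outcomes in mice with a transplanted tumor.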

Where [1] appears, read: endpoint: mean survival time, dose: 100.0 mg/kg/injection, schedule: Q01DX009 (ip), vehicle: saline with Tween-80.
[2] abbreviates: endpoint: mean survival time, dose: 200.0 mg/kg/injection, schedule: Q01DX009 (ip), vehicle: saline with Tween-80.
Setting [3] is: endpoint: mean survival time, dose: 50.0 mg/kg/injection, schedule: Q01DX009 (ip), vehicle: saline with Tween-80.
Where [4] appears, read: endpoint: mean survival time, dose: 50.0 mg/kg/injection, schedule: Q01DX009 (ip), vehicle: Klucel (hydroxypropylcellulose) (HPC).
[5] abbreviates: endpoint: mean survival time, dose: 100.0 mg/kg/injection, schedule: Q01DX009 (ip), vehicle: Klucel (hydroxypropylcellulose) (HPC).
Where [6] appears, read: endpoint: mean survival time, dose: 25.0 mg/kg/injection, schedule: Q04DX003 (ip), vehicle: saline with Tween-80.
Where [7] appears, read: endpoint: mean survival time, dose: 50.0 mg/kg/injection, schedule: Q04DX003 (ip), vehicle: saline with Tween-80.
[8] abbreviates: endpoint: mean survival time, dose: 100.0 mg/kg/injection, schedule: Q04DX003 (ip), vehicle: saline with Tween-80.
Setting [9] is: endpoint: mean survival time, dose: 100.0 mg/kg/injection, schedule: Q04DX002 (ip), vehicle: saline with Tween-80.
The mark [10] stands for this setting: endpoint: mean survival time, dose: 200.0 mg/kg/injection, schedule: Q04DX002 (ip), vehicle: saline with Tween-80.
Setting [11] is: endpoint: mean survival time, dose: 400.0 mg/kg/injection, schedule: Q04DX002 (ip), vehicle: saline with Tween-80.
[12] abbreviates: endpoint: mean survival time, dose: 200.0 mg/kg/injection, schedule: Q04DX003 (ip), vehicle: saline with Tween-80.
The mark [13] stands for this setting: endpoint: mean survival time, dose: 400.0 mg/kg/injection, schedule: Q04DX003 (ip), vehicle: saline with Tween-80.

Take `COC(=O)c1cc(OC)cc(OC)c1`: the T/C is 96 % of control (endpoint: mean survival time, dose: 100.0 mg/kg/injection, schedule: Q01DX009 (ip), vehicle: other); 110 % of control (endpoint: mean survival time, dose: 200.0 mg/kg/injection, schedule: Q01DX009 (ip), vehicle: other); 91 % of control (endpoint: mean survival time, dose: 400.0 mg/kg/injection, schedule: Q01DX009 (ip), vehicle: other).

`CCCCCCCC/C=C\CCCCCCCC(=O)NCCCN(C)CCCNC(=O)CCCCCCC/C=C/CCCCCCCC`: the T/C is, setting by setting: (endpoint: mean survival time, dose: 75.0 mg/kg/injection, schedule: Q01DX001 (ip), vehicle: other) 100 % of control; (endpoint: mean survival time, dose: 150.0 mg/kg/injection, schedule: Q01DX001 (ip), vehicle: other) 104 % of control; (endpoint: mean survival time, dose: 300.0 mg/kg/injection, schedule: Q01DX001 (ip), vehicle: other) 100 % of control.

Turning to `CN(Cc1cnc2nc(N)nc(N)c2n1)c1ccc(C(=O)NC(CCC(=O)NC(CCC(=O)NC(CCC(=O)O)C(=O)O)C(=O)O)C(=O)O)cc1` (stereo not given), the T/C runs as follows: (endpoint: mean survival time, dose: 0.5 mg/kg/injection, schedule: Q01DX005 (ip), vehicle: sodium bicarbonate) 98 % of control; (endpoint: mean survival time, dose: 1.0 mg/kg/injection, schedule: Q01DX005 (ip), vehicle: sodium bicarbonate) 111 % of control and 112 % of control; (endpoint: mean survival time, dose: 2.0 mg/kg/injection, schedule: Q01DX005 (ip), vehicle: sodium bicarbonate) 114 % of control and 121 % of control; (endpoint: mean survival time, dose: 8.0 mg/kg/injection, schedule: Q01DX005 (ip), vehicle: sodium bicarbonate) 152 % of control and 153 % of control; (endpoint: mean survival time, dose: 16.0 mg/kg/injection, schedule: Q01DX005 (ip), vehicle: sodium bicarbonate) 158 % of control.

Consider `Cc1ncc(CO)c(C2NOCc3nscc32)c1O` (stereo not given), for which the T/C is, setting by setting: (endpoint: mean survival time, dose: 18.0 mg/kg/injection, schedule: Q01DX009 (ip), vehicle: Klucel (hydroxypropylcellulose) (HPC)) 90 % of control; (endpoint: mean survival time, dose: 28.0 mg/kg/injection, schedule: Q01DX009 (ip), vehicle: Klucel (hydroxypropylcellulose) (HPC)) 89 % of control.

Regarding `O=C(O)/C=C\C(=O)Nc1ccc(Cl)cc1Cl`, the T/C runs as follows: under setting [1], 103 % of control; under setting [2], 95 % of control.

For `COC1C=CC=CC=C1`, the T/C was 100 % of control (endpoint: mean survival time, dose: 15.0 mg/kg/injection, schedule: Q04DX003 (ip), vehicle: saline sonified); 94 % of control (endpoint: mean survival time, dose: 30.0 mg/kg/injection, schedule: Q04DX003 (ip), vehicle: saline sonified); 100 % of control (endpoint: mean survival time, dose: 60.0 mg/kg/injection, schedule: Q04DX003 (ip), vehicle: saline sonified).

As to `Cc1ccc(NC(=O)c2cccc(C(=O)Nc3ccc(C)cc3C)c2)c(C)c1`, the T/C reads like this: (endpoint: mean survival time, dose: 12.5 mg/kg/injection, schedule: Q01DX009 (ip), vehicle: saline with Tween-80) 94 % of control; (endpoint: mean survival time, dose: 25.0 mg/kg/injection, schedule: Q01DX009 (ip), vehicle: saline with Tween-80) 90 % of control; under setting [3], 89 % of control.

For the compound `O=Cc1cc([N+](=O)[O-])cc(CCl)c1O`, the T/C is, setting by setting: (endpoint: mean survival time, dose: 25.0 mg/kg/injection, schedule: Q01DX009 (ip), vehicle: Klucel (hydroxypropylcellulose) (HPC)) 95 % of control; under setting [4], 95 % of control; under setting [5], 101 % of control.

As to `Cc1cc[n+](C)c(-c2ccccc2)c1`, the T/C by setting is: (endpoint: mean survival time, dose: 6.25 mg/kg/injection, schedule: Q01DX009 (ip), vehicle: saline sonified) 100 % of control; (endpoint: mean survival time, dose: 12.5 mg/kg/injection, schedule: Q01DX009 (ip), vehicle: saline sonified) 101 % of control; (endpoint: mean survival time, dose: 25.0 mg/kg/injection, schedule: Q01DX009 (ip), vehicle: saline sonified) 109 % of control.

Turning to `CCCOCCN=C(N)C(N)=NCCOCCC`, the T/C is, setting by setting: (endpoint: mean survival time, dose: 12.5 mg/kg/injection, schedule: Q04DX002 (ip), vehicle: saline with Tween-80) 97 % of control; (endpoint: mean survival time, dose: 25.0 mg/kg/injection, schedule: Q04DX002 (ip), vehicle: saline with Tween-80) 89 % of control; (endpoint: mean survival time, dose: 50.0 mg/kg/injection, schedule: Q04DX002 (ip), vehicle: saline with Tween-80) 97 % of control.

On to `Cc1c(N=O)c(-c2ccccc2)n(O)[n+]1[O-]`, for which the T/C is 104 % of control under setting [4]; 104 % of control under setting [5]; 101 % of control (endpoint: mean survival time, dose: 200.0 mg/kg/injection, schedule: Q01DX009 (ip), vehicle: Klucel (hydroxypropylcellulose) (HPC)).

For the compound `CCC(C(=O)O)C(=O)O.[NH-]CC[NH-].[Pt+2]`, the T/C reads like this: under setting [6], 101 % of control; under setting [7], 104 % of control; under setting [8], 112 % of control.

On to `N#CC(c1ccc(N)cc1)C(CC(=O)c1ccccc1)c1ccccc1` (stereo not given), for which the T/C under setting [9] is 87 % of control and 95 % of control; the T/C under setting [10] is 91 % of control; the T/C under setting [11] was 87 % of control and 95 % of control.

Take `Cc1nc(Cl)c2cnccn12`: the T/C was 96 % of control (endpoint: mean survival time, dose: 12.5 mg/kg/injection, schedule: Q04DX003 (ip), vehicle: saline); 100 % of control (endpoint: mean survival time, dose: 25.0 mg/kg/injection, schedule: Q04DX003 (ip), vehicle: saline); 104 % of control (endpoint: mean survival time, dose: 50.0 mg/kg/injection, schedule: Q04DX003 (ip), vehicle: saline).

For the compound `Cn1ncc2c1NC(c1ccc(F)cc1)SCC2=O` (stereo not given), the T/C runs as follows: (endpoint: mean survival time, dose: 25.0 mg/kg/injection, schedule: Q01DX009 (ip), vehicle: gum acacia) 95 % of control and 96 % of control; (endpoint: mean survival time, dose: 50.0 mg/kg/injection, schedule: Q01DX009 (ip), vehicle: gum acacia) 97 % of control and 101 % of control; (endpoint: mean survival time, dose: 100.0 mg/kg/injection, schedule: Q01DX009 (ip), vehicle: gum acacia) 92 % of control and 95 % of control and 103 % of control; (endpoint: mean survival time, dose: 200.0 mg/kg/injection, schedule: Q01DX009 (ip), vehicle: gum acacia) 96 % of control and 104 % of control; (endpoint: mean survival time, dose: 400.0 mg/kg/injection, schedule: Q01DX009 (ip), vehicle: gum acacia) 100 % of control.

As for `CCCCNP1(NCCCC)=NP(NCCCC)(NCCCC)=NP(NCCCC)(NCCCC)=NP(NCCCC)(NCCCC)=N1`, the T/C reads like this: (endpoint: median survival time, dose: 12.5 mg/kg/injection, schedule: Q01DX009 (ip), vehicle: saline with Tween-80) 107 % of control; (endpoint: median survival time, dose: 25.0 mg/kg/injection, schedule: Q01DX009 (ip), vehicle: saline with Tween-80) 107 % of control; (endpoint: median survival time, dose: 50.0 mg/kg/injection, schedule: Q01DX009 (ip), vehicle: saline with Tween-80) 97 % of control.

With `CCCCC(=O)OCC[N+](C)(C)C`, the T/C under setting [9] is 100 % of control, the T/C under setting [10] was 95 % of control and the T/C under setting [11] is 91 % of control.

Consider `OC(CC1=NCCS1)(c1ccccc1)c1ccccc1`, for which the T/C reads like this: under setting [8], 93 % of control; under setting [12], 87 % of control; under setting [13], 98 % of control.

Take `COC(=O)C(O)C(O)C(O)C(O)C(O)CO` (stereo not given): the T/C is 95 % of control (endpoint: mean survival time, dose: 100.0 mg/kg/injection, schedule: Q01DX001 (ip), vehicle: saline); 98 % of control (endpoint: mean survival time, dose: 200.0 mg/kg/injection, schedule: Q01DX001 (ip), vehicle: saline); 96 % of control (endpoint: mean survival time, dose: 400.0 mg/kg/injection, schedule: Q01DX001 (ip), vehicle: saline).

Consider `CCN(Cc1ccc(Cl)c(Cl)c1)c1ccc2nc(N)nc(N)c2c1C`, for which the T/C runs as follows: (endpoint: mean survival time, dose: 1.5 mg/kg/injection, schedule: Q01DX009 (ip), vehicle: water) 97 % of control; (endpoint: mean survival time, dose: 3.0 mg/kg/injection, schedule: Q01DX009 (ip), vehicle: water) 106 % of control; (endpoint: mean survival time, dose: 24.0 mg/kg/injection, schedule: Q01DX009 (ip), vehicle: water) 101 % of control; (endpoint: median survival time, dose: 1.5 mg/kg/injection, schedule: Q01DX009 (ip), vehicle: water) 103 % of control; (endpoint: median survival time, dose: 3.0 mg/kg/injection, schedule: Q01DX009 (ip), vehicle: water) 111 % of control; (endpoint: median survival time, dose: 6.0 mg/kg/injection, schedule: Q01DX009 (ip), vehicle: water) 112 % of control.

Take `S=C(Nc1ccccc1)N1CCCC1`: the T/C is 96 % of control under setting [3], 100 % of control under setting [1] and 102 % of control under setting [2].

`COC(=O)c1cc2c3ccccc3ncc2c2ccccc12`: the T/C was 89 % of control under setting [6]; 89 % of control under setting [7]; 87 % of control under setting [8]; 89 % of control under setting [12]; 89 % of control under setting [13].

With `CCC[CH2][Sn]([CH2]C)([CH2]C)[O]C(C)=O`, the T/C was 104 % of control (endpoint: mean survival time, dose: 2.5 mg/kg/injection, schedule: Q01DX009 (ip), vehicle: saline with Tween-80) and 102 % of control (endpoint: mean survival time, dose: 5.0 mg/kg/injection, schedule: Q01DX009 (ip), vehicle: saline with Tween-80).
